Measured values: patent publication US8742068B2, “Treatment and prevention of inflammatory diseases and autoimmune diseases” (Universiteit Utrecht Holding B.V., priority 2007, dated 2014)
Entries after “also recorded” stand apart in the source; their conditions may differ.

Assays:
[1] = test system: primed spleen and draining lymph node cells; test: Peptide pool immunization, in vitro re-stimulation with individual peptides (T-cell proliferation, cytokine production, cross reactivity); type: cell-based, Balb/c mice
Source text: To define the epitopes more precisely, we divided the 13 peptides, based on the degree of sequence identity between bacterial and the homologous mouse Hsp70s, in three pools (pool A: non-conserved peptides, pool B: conserved peptides comprising at least about 80% amino acid identity to the mouse homologue, and pool C: highly conserved peptides comprising >86% amino acid identity to the mouse homologue, see below) and immunized 10-12 weeks old Balb/c mice twice with a 2 week interval (intraperitoneally and subcutaneously) with the peptide pools. 10 days after the second immunization primed spleen and draining lymph node cells were re-stimulated in vitro with all the 13 individual peptides after which we measured T-cell proliferation (tritium incorporation), IFNγ, IL10, IL4 and IL5 production (cytokine production).
Cross reactivity was determined with the corresponding mouse homologue peptides.

[2] = test system: proteoglycan induced arthritis; test: Proteoglycan induced arthritis (PGIA), intranasal pre-treatment; type: in vivo, Balb/c mice; settings: control pOva
Source text: The proteoglycan induced arthritis model (PGIA) is a murine model of rheumatoid arthritis and is described to be a T-cell dependent and antibody mediated model. In the model arthritis is induced by two times injection of human proteoglycan (hPG) in a synthetic adjuvant dimethyldioctadecylammonium (DDA), see Hanyecz A. et al., Achievement of a synergistic adjuvant effect on arthritis induction by activation of innate immunity and forcing the immune response toward the Th1 phenotype. Arthritis Rheum. 2004 50(5):1665-76.
Because arthritis is induced by immunization with a synthetic adjuvant, instead of complete Freund's adjuvant (CFA), the role of interfering immune responses, induced by microbial Hsp's present in CFA, can be excluded. Due to cross reactive responses, between the human and the mouse (self) PG, a chronic and relapsing arthritis develops. After disease development, arthritis severity is scored by clinical assessment of thickness, redness and deformation of the joints on a scale of 1-4 per paw.
Ten female Balb/c mice, retired breeders obtained from Charles River, were randomly divided in two groups. To evaluate the effect of intra nasal treatment with Mycobacterial HSP70 (SEQ ID NO: 55) on PGIA 30 μg Hsp70 in 10 μl PBS was administered on day −7, −5 and −3 before disease induction. PGIA was induced by two times i.p. injection with 400 μg hPG and 2 mg DDA in 200 μl PBS. Subsequently developed arthritis scores were assessed by clinical evaluation as described in Example 7.
Fifteen female Balb/c mice, retired breeders obtained from Charles River, were randomly divided in three groups (five mice per group). To evaluate the effect of intranasal treatment with Hsp70-derived peptides “B1” (SEQ ID NO: 1) and a mixture of C1 (SEQ ID NO: 3) and mC1a (SEQ ID NO: 4) (designated herein as “C1mix”) on PGIA 100 μg peptide in 10 μl PBS was administered on day −7, −5 and −3 before disease induction. Ovalbumin peptide 323-339 (pOva) was used as a control peptide. PGIA was induced by two times i.p. injection with 400 μg hPG and 2 mg DDA in 200 μl PBS. Subsequently developed arthritis scores were assessed by clinical evaluation.
Twelve female Balb/c mice, retired breeders obtained from Charles River, were randomly divided in two groups (six mice per group). To evaluate the effect of intra nasal treatment with Hsp70 derived mC1 a on PGIA 100 μg peptide in 10 μl PBS was administered on day −14, −11, −7 and −4 before disease induction. Ovalbumin peptide (pOva) was used as a control peptide. PGIA was induced by two times i.p. injection with 400 μg hPG and 2 mg DDA in 200 μl PBS. Subsequently developed arthritis scores were assessed by clinical evaluation.
Eighteen female Balb/c mice, retired breeders obtained from Charles River, were randomly divided in three groups (six mice per group). To evaluate the effect of intranasal (i.n.) treatment with Hsp70 derived peptides C1 and its mouse homologue mC1a on PGIA 100 μg peptide in 10 μl PBS was administered on day −7, −5 and −3 before disease induction (see FIG. 28). Ovalbumin peptide (pOva) was used as a control peptide. PGIA was induced by two times i.p. injection with 300 μg hPG and 2 mg DDA in 200 μl PBS. Subsequently developed arthritis scores were assessed by clinical evaluation. • Group A: (pOva): Treated with 100 μg pOva in 10 μl PBS intranasally • Group B (C1): Treated with 100 μg C1 in 10 μl PBS intranasally • Group C (mC1a): Treated with 100 μg mC1a in 10 μl PBS intranasally

[3] = test system: PBMC isolated from the blood of healthy donors; test: Peptide-specific proliferation of human PBMC; type: cell-based; settings: peptides at 20 μg/ml for 96 hours; compared to A5 control peptide
Source text: Peptide specific responses were studied in mononuclear cells obtained from the blood of healthy controls or the synovial fluid of a JIA and a RA patient. The patients were visiting the outpatient clinic of the departments of Rheumatology & Clinical Immunology and Pediatrics of the University Medical Center Utrecht (Utrecht, The Netherlands). The RA patient fulfilled diagnostic criteria of the American College of Rheumatology criteria for RA […]. Cells were isolated by ficoll (Pharmacia, Uppsala, Sweden) density gradient centrifugation of heparinized blood or synovial fluid and cultured in RPMI 1640 supplemented with 2 mmol/L glutamine, 100 U/ml penicillin and streptomycin (Gibco BRL, Gaithersburg, Md. USA) and 10% AB-positive heat-inactivated human serum (Sanquin Blood Bank, Utrecht, the Netherlands) in 96 wells round bottom plates (Nunc, Roskilde, Denmark) at 2*10^5 cells in 200 μl per well. Cultures were in triplicate stimulated with peptides at 20 μg/ml for 96 hours at 37° C. in 5% CO2 with 100% relative humidity. For determination of peptide-specific proliferation of PBMC, during the last 16 hours 1 μC1 (37 kBq) [^3H]-thymidine was added to each well and incorporation was measured. Data are expressed as stimulation index calculated as mean CPM of cells cultured with peptide divided by mean CPM of cells cultured without peptide.

[4] = test system: synovial fluid mononuclear cells (SFMC); test: Peptide-specific response of SFMC (intracellular staining and FACS); type: cell-based, human; settings: eight days culture with peptide, 6 hour restimulation
Method: Peptide-specific response of SFMC was measured by intracellular staining and FACS analysis. Therefore, cells were cultured in the presence of the peptide as described for PBMC. After 96 hours 100 μl of the medium was replaced by fresh culture medium and 40 IU/ml IL-2 was added. At day eight, cells were spun down, medium was aspirated and 200 μl new medium with fresh irradiated APC of the same donor was added (7.5*10^5 irradiated at 3500 rad) During 6 hours cells were cultured with or without the peptides and addition of the costimulatory mAbs CD28 and CD49 (0.5 μg/ml each) at 37° C. In the last 4 hours Golgistop (BD Biosciences) was added. Harvested cells were washed and surface stained as described previously […] with anti-CD3-Peridinin-chlorophyll-protein Complex (PerCP), anti-CD4-allophycocyanin (APC) and anti-CD69-fluorescein isothiocyanate (FITC) and subsequently fixed in Cytofix/cytoperm solution (BD Biosciences) followed by intracellular staining with phycoerythrin (PE) conjugated mAbs against either IL-10, IFNγ or TNFα. All antibodies were obtained from Becton Dickinson. Data are expressed as % positive cells of the CD3^+CD4^+ population.

adjuvant arthritis = settings: in vivo; cited from earlier work
arthritis = settings: cited from earlier work
[5] = Example 11: 100 μg intranasally on day −7, −5 and −3

DEVVAVGAALQAGVL (listed as Mycobacterium tuberculosis) [B1, pool B (conserved)]
Cross-reactivity of bacterially primed T-cells with mouse homologue peptide [1]: induced cross reactive T cell responses and yes
disease severity (arthritis score) ([2]; Example 9: 100 μg intranasally on day −7, −5 and −3): reduction of disease severity

KPFQSVIADTGISVS (listed as Mycobacterium tuberculosis) [A1, pool A (not conserved)]
Cross-reactivity of bacterially primed T-cells with mouse homologue peptide [1]: no

VLRIINEPTAAAIAY (listed as Mus musculus) [mC1b, mouse hsp70 (hspa1a/hspa8) peptide, mouse homologue of C1]
peptide-specific proliferation (stimulation index, [3H] thymidine incorporation) [3]: increased proliferation of PBMC; also recorded: significantly increased the proliferation
production of IL-10, IFNγ and TNFα in the CD3+CD4+ population [4]: increased the production of IL-10, IFNγ and TNFα
surface expression of CD69 in the CD3+CD4+ population [4]: increased

VLRIVNEPTAAALAY (listed as Mycobacterium tuberculosis) [C1]
Cross-reactivity of bacterially primed T-cells with mouse homologue peptide [1]: induced cross reactive T cell responses and yes
disease activity (arthritis score) [2, 5]: significant reduction of disease activity
production of IL-10, IFNγ and TNFα in the CD3+CD4+ population [4]: increased CD69 and cytokine expression
surface expression of CD69 in the CD3+CD4+ population [4]: increased CD69 and cytokine expression

VLRVINEPTAAALAY (listed as Mus musculus) [mC1a, mouse Grp75 (hspa9a) peptide 216-230, mouse homologue of C1]
disease activity (arthritis score) ([2]; Example 10: 100 μg intranasally on day −14, −11, −7 and −4): suppressed disease activity
disease activity (arthritis score) [2, 5]: significant reduction of disease activity

amino acids 84-103: another peptide of Mycobacterial HSP70, amino acids 84-103 (Tanaka et al. 1999) (KKYTAPEISARILMKLKRDA; UniProt P9WMJ9 84-103, looked up, fragment)
development of adjuvant arthritis (adjuvant arthritis): does not suppress adjuvant arthritis development

peptide 111-125: synthetic 15-mer peptide of mycobacterial HSP70, amino acids 111-125 (Wendling et al. 2000) (ITDAVITTPAYFNDA; UniProt P9WMJ9 111-125, looked up, fragment)
arthritis (arthritis; nasal administration): significant reduction of arthritis
arthritis development (arthritis; parenteral pre-immunization): did not protect against arthritis development

peptide 234-252: peptide 234-252 of Mycobacterial HSP70 (Tanaka et al. 1999) (LREAAEKAKIELSSSQSTS; UniProt P9WMJ9 234-252, looked up, fragment)
IL-10 production (adjuvant arthritis): induces IL-10 production
development of adjuvant arthritis (adjuvant arthritis): suppresses the development of adjuvant arthritis
